# In ChEMBL document CHEMBL4304789, “Design, Synthesis, and Biological Evaluation of 2,4-Imidazolinedione Derivatives as HDAC6 Isoform-Selective Inhibitors” (ACS Med Chem Lett, 2019):
# Key:
# [1] = test system: RPMI-8226; test: Antiproliferative activity against human RPMI8226 cells incubated for 48 hrs by MTT assay; type: functional, cell-based; details: RPMI-8226, 48 h
# [2] = biological target: T1, Histone deacetylase 8 (Homo sapiens, UniProt Q9BY41); test: Inhibition of HDAC8 (unknown origin) using Ac-LeuGlyLys(tfa)-AMC as substrate preincubated for 5 mins followed by substrate addition and measured after 60 mins by fluorescence based assay
# T1 sequence (Q9BY41 whole entry): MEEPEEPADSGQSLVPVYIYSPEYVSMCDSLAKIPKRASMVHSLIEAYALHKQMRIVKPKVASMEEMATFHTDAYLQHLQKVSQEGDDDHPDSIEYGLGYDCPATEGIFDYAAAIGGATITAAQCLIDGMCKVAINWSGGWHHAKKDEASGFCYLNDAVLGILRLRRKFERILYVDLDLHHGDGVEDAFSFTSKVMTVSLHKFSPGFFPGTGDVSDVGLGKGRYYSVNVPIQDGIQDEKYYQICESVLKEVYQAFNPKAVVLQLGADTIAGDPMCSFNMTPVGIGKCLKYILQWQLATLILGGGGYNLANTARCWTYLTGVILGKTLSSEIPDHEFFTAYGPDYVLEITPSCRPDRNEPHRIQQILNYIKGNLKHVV
# [3] = test system: HCT-116; test: Antiproliferative activity against human HCT116 cells incubated for 48 hrs by MTT assay; type: functional, cell-based; details: HCT-116, 48 h
# [4] = biological target: T2, Histone deacetylase 7 (Homo sapiens, UniProt Q8WUI4); test: Inhibition of HDAC7 (unknown origin) using Ac-LeuGlyLys(tfa)-AMC as substrate preincubated for 5 mins followed by substrate addition and measured after 60 mins by fluorescence based assay
# T2 sequence (Q8WUI4 whole entry): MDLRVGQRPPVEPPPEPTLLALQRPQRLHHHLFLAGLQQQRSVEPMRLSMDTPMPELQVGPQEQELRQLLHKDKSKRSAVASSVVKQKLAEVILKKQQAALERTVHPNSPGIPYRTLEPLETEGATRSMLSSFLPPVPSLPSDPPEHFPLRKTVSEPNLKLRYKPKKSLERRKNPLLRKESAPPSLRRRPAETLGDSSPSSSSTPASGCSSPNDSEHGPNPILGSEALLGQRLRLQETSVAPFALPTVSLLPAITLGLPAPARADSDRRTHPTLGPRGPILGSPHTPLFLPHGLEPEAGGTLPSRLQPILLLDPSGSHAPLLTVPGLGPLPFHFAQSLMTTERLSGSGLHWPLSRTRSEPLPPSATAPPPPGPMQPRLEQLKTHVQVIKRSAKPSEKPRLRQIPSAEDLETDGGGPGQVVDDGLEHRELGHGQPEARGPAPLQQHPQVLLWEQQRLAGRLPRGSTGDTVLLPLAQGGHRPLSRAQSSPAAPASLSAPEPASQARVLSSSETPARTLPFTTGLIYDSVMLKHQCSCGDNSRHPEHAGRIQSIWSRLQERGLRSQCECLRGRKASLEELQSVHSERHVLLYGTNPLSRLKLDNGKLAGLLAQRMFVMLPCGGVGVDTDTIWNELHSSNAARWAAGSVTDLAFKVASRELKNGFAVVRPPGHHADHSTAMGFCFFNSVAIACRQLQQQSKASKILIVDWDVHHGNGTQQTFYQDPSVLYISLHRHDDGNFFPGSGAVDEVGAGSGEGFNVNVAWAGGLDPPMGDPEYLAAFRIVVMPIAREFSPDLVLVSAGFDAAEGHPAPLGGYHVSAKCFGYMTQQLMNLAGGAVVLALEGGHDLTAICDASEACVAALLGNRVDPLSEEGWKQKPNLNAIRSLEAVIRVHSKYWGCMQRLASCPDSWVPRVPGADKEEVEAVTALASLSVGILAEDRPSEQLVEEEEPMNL
# [5] = test system: HL-60; test: Antiproliferative activity against human HL60 cells incubated for 48 hrs by MTT assay; type: functional, cell-based; details: HL-60, 48 h
# [6] = biological target: Histone deacetylase 3 (Homo sapiens, UniProt O15379); test: Inhibition of HDAC3 (unknown origin) using Ac-LeuGlyLys(Ac)-AMC as substrate preincubated for 5 mins followed by substrate addition and measured after 60 mins by fluorescence based assay
# [7] = biological target: Histone deacetylase 9 (Homo sapiens, UniProt Q9UKV0); test: Inhibition of HDAC9 (unknown origin) using Ac-LeuGlyLys(tfa)-AMC as substrate preincubated for 5 mins followed by substrate addition and measured after 60 mins by fluorescence based assay
# [8] = test system: A549; test: Antiproliferative activity against human A549 cells incubated for 48 hrs by MTT assay; type: functional, cell-based; details: A549, 48 h
# Chain of Histone deacetylase 9 (Q9UKV0 whole entry): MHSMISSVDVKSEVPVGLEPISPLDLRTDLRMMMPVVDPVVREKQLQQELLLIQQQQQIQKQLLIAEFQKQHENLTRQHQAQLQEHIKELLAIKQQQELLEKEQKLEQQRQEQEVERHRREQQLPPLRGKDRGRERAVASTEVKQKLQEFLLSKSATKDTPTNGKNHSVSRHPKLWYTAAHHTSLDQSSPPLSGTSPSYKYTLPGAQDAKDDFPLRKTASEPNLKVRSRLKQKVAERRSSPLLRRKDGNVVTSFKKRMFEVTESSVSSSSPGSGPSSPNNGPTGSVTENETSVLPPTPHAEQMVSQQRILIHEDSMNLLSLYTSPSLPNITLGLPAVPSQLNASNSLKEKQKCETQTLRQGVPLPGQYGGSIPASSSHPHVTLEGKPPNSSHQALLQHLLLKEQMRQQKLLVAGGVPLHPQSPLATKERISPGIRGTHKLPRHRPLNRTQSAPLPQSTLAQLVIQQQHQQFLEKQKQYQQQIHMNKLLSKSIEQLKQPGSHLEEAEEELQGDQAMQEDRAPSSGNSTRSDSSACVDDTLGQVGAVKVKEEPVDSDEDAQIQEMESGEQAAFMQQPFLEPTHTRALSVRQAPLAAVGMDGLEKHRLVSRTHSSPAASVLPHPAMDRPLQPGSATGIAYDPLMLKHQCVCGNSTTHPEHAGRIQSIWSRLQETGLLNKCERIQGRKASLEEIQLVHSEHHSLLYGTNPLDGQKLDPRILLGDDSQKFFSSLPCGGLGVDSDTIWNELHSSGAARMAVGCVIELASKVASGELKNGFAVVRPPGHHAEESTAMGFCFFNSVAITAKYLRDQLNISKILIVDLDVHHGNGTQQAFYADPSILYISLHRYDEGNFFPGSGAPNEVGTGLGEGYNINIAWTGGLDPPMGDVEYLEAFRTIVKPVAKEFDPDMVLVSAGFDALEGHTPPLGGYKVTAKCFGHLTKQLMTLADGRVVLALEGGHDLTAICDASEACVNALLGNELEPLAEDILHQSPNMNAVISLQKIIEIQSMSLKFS
# Chain of Histone deacetylase 3 (O15379 whole entry): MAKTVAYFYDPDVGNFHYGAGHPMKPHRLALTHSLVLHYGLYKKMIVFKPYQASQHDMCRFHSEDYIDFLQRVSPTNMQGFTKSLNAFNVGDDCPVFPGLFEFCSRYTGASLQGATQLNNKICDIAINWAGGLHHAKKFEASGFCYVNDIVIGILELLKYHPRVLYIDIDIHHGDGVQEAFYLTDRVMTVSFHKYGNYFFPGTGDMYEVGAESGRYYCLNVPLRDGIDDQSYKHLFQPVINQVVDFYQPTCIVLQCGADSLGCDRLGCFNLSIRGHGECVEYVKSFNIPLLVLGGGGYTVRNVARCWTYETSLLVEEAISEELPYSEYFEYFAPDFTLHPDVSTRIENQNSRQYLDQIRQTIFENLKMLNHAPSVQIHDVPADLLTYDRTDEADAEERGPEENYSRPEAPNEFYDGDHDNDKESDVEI
smiles,measurement,setting,value
O=C(CCC1C(=O)N(c2ccc(Cl)cc2)C(=O)N1Cc1ccc(Br)cc1)Nc1ccc(C(=O)NO)cc1 (centres undefined),IC50,[1],0.36 µM
same,IC50,[2],6.7 µM
same,IC50,[3],1.25 µM
same,IC50,[4],6 µM
same,IC50,[5],0.34 µM
same,IC50,[6],0.126 µM
same,IC50,[7],9.1 µM
same,IC50,[8],5.86 µM
Cc1ccc(CN2C(=O)N(c3ccc(Cl)cc3)C(=O)C2CCC(=O)Nc2ccc(C(=O)NO)cc2)cc1 (centres undefined),IC50,[1],0.23 µM
same,IC50,[2],> 100 µM
same,IC50,[3],0.83 µM
same,IC50,[4],> 100 µM
same,IC50,[5],0.25 µM
same,IC50,[6],0.235 µM
same,IC50,[7],> 100 µM
same,IC50,[8],0.79 µM
O=C(CCC1C(=O)N(c2ccc(Cl)cc2)C(=O)N1Cc1ccccc1)Nc1ccc(C(=O)NO)cc1 (centres undefined),IC50,[1],0.64 µM
same,IC50,[2],3.6 µM
same,IC50,[3],2.25 µM
same,IC50,[4],8.8 µM
same,IC50,[5],0.61 µM
same,IC50,[6],0.096 µM
same,IC50,[7],15.2 µM
same,IC50,[8],9.45 µM
